Experiments:
[1] = molecular target: T1, γ1 subunit containing GABAA receptors (Rattus norvegicus, UniProt P15431+P62813); test: Control of γ1 subunit incorporation with triazolam; assay type: cell-based; details: 10 µM
T1 construct: expressed in transfected cells; host or cells: Xenopus laevis oocytes, mRNA injected
Method: For electrophysiological recordings, oocytes were placed on a nylon-grid in a bath of Ca^2+-containing NDE solution medium [96 mM NaCl, 5 mM HEPES-NaOH (pH 7.5), 2 mM KCl, 1 mM MgCl2, 1.8 mM CaCl2]. For current measurements the oocytes were impaled with two microelectrodes (1–3 MΩ resistance) filled with 2 M KCl. […] The EC3–5 was determined at the beginning of each experiment. Drugs were diluted into NDE from DMSO-solutions resulting in a final concentration of 0.1% DMSO perfusing the oocytes. […] Between two applications, oocytes were washed in NDE for up to 15 min to ensure full recovery from desensitization. […] All recordings were performed at room temperature at a holding potential of […] using a Dagan TEV-200A two-electrode voltage clamp (Dagan Corporation, Mineapolis, MN). Data were digitized, recorded and measured using an Axon Digidata- 1550 low-noise data acquisition system (Axon Instruments, Union City, CA).

α1β1 GABAA receptors = molecular target: T2, α1β1 GABAA receptors (Rattus norvegicus, UniProt P15431+P62813); test: Two electrode voltage clamp in Xenopus laevis oocytes, α1β1; assay type: cell-based; details: α1β1
T2 construct: expressed in transfected cells; host or cells: Xenopus laevis oocytes, mRNA injected
Excerpt: (§1) cDNA’s of rat GABAA receptor subunits α1, α4, β1, β2, β3 and γ2S were cloned as described. cDNAs of the rat subunits α2, α3 and α5 were gifts from P. Malherbe, that of α6 and γ1 were gifts of P. Seeburg and that of δ was a gift of C. Czajkowski. The mutants were constructed using the Q5 Site-Directed Mutagenesis Kit (New England Biolabs) following manufacturer’s instruction. We used the wild-type rat β3-pCI vector as template and the primers […] and […] resulting in a substitution of amino acid N41 (AAC) to R (AGG). We used the wild-type rat β1-pCI vector as template and the primers […] and […] resulting in a substitution of amino acid R41 (CGG) to N (AAC). The mutated subunits were confirmed by sequencing.
(§2) In vitro transcription of mRNA was based on the cDNA expression vectors encoding for rat GABAA receptor subunits α1–6, β1-3, γ1,2, δ and the two β mutants (β1R41N and β3N41R)[40]. After linearizing the cDNA vectors with appropriate restriction endonucleases, the cDNA was purified and concentrated with the DNA Clean and Contentrator ^TM Kit (Zymoresearch, Catalog No. D4005). Capped transcripts of the purified cDNA were produced using the mMESSAGE mMACHINE® T7 transcription kit (Ambion, TX, USA) and polyadenylated using the Ambion PolyA tailing kit (Ambion). After transcription and polyadenylation the RNA was purified with the MEGAclear ^TM Kit (Ambion, Catalog No. AM1908). The final RNA concentration was measured on NanoDrop® ND-1000 and finally diluted and stored in diethylpyrocarbonate-treated water at −80 °C. For the microinjection, the RNA of αβ receptor combinations was mixed at 1:1 ratio (which leads to αβ receptors that consist of predominantly 3 beta and 2 alpha subunits[27]), for αkβlγm (k = 1–3, l = 1, 3, m = 1, 2) receptors at 1:1:5 ratio, for αkβ3γ2 (k = 4–6) and αkβlδ (k = 1, 4 and 6, l = 1, 3) receptor combinations at 3:1:5 ratio.
(§3) Mature female Xenopus laevis (Nasco, WI) were anesthetized in a bath of ice-cold 0.17% Tricain (Ethyl-m-aminobenzoate, Sigma, MO) before decapitation in full accordance with all rules of the Austrian animal protection law (see http://www.ris.bka.gv.at/Dokumente/BgblAuth/BGBLA_2012_I_114/BGBLA_2012_I_114.pdf) and the Austrian animal experiment by-laws (see https://www.ris.bka.gv.at/Dokumente/BgblAuth/BGBLA_2012_II_522/BGBLA_2012_II_522.pdf) which implement the European Directive 2010/63/EU (see http://eur-lex.europa.eu/LexUriServ/LexUriServ.do?uri=OJ:L:2010:276:0033:0079:en:PDF) into the Austrian law (all information accessed on July 27, 2016). The frog’s ovaries were transferred to ND96 medium (96 mM NaCl, 2 mM KCl, 1 mM MgCl2, 5 mM HEPES; pH 7.5). Stage 5–6 oocytes with the follicle cell layer around them were roughly dissected with forceps into packages of 10–15 cells and washed in Ca^2+-free ND96 medium. Cells were then digested with collagenase (type IA, Sigma, NO, 1 mg/mL ND96) at 18 °C shaking at 30 rpm for 30–60 minutes and gently defolliculated with the aid of a glass pipette with appropriate tip diameter and a platinum loop. Defolliculated cells were stored at 18 °C for at least 6 hours in ND96 solution containing penicillin G (10000 IU/100 mL) and streptomycin (10 mg/100 mL) in order to preselect and exclude damaged cells from further treatment. Healthy defolliculated oocytes were injected with an aqueous solution of mRNA. A total of 4.5 ng of mRNA per oocyte was injected with a Nanoject II (Drummond). After injection of mRNA, oocytes were incubated at 18 °C (ND96 + antibiotic) for 2–3 days for αβ receptors and for 3–4 days for αβγ or αβδ receptors before recording. When cells were measured at later time points, oocytes were stored at +4 °C instead of 18 °C.
(§4) For electrophysiological recordings, oocytes were placed on a nylon-grid in a bath of Ca^2+-containing NDE solution medium [96 mM NaCl, 5 mM HEPES-NaOH (pH 7.5), 2 mM KCl, 1 mM MgCl2, 1.8 mM CaCl2].

α1β2 GABAA receptors = molecular target: T3, α1β2 GABAA receptors (Rattus norvegicus, UniProt P62813+P63138); test: Two electrode voltage clamp in Xenopus laevis oocytes, α1β2; assay type: cell-based; details: read-out: efficacy, % of control current (GABA EC3-5 = 100%), α1β2
T3 construct: expressed in transfected cells; host or cells: Xenopus laevis oocytes, mRNA injected
Excerpt: as §1, §2, §3, §4

α1β3 GABAA receptors = molecular target: T4, α1β3 GABAA receptors (Rattus norvegicus, UniProt P62813+P63079); test: Two electrode voltage clamp in Xenopus laevis oocytes, α1β3; assay type: cell-based; details: read-out: efficacy, % of control current (GABA EC3-5 = 100%), α1β3
T4 construct: expressed in transfected cells; host or cells: Xenopus laevis oocytes, mRNA injected
Excerpt: as §1, §2, §3, §4

α1β1R41N GABAA receptors = molecular target: T5, α1β1R41N GABAA receptors (Rattus norvegicus, UniProt P15431+P62813, R66N); test: Two electrode voltage clamp in Xenopus laevis oocytes, mutant α1β1R41N; assay type: cell-based; details: read-out: % of control current at EC3-5
T5 construct: expressed in transfected cells; host or cells: Xenopus laevis oocytes, mRNA injected
Excerpt: as §1, §2, §3, §4

α1β3N41R GABAA receptors = molecular target: T6, α1β3N41R GABAA receptors (Rattus norvegicus, UniProt P62813+P63079, N66R); test: Two electrode voltage clamp in Xenopus laevis oocytes, mutant α1β3N41R; assay type: cell-based; details: co-applied with GABA EC3-5, read-out: EC50 values for the mutated receptors
T6 construct: expressed in transfected cells; host or cells: Xenopus laevis oocytes, mRNA injected
Excerpt: as §1, §2, §3, §4

[2] = molecular target: benzodiazepine binding site, rat cerebellum membranes; test: [3H]flunitrazepam saturation binding, rat cerebellar membranes; details: n = 3, read-out: equilibrium binding constant KD
Method: In brief, membrane pellets were incubated for 90 min at 4 °C in a total of 500 µL of a solution containing 50 mM Tris/citrate buffer, pH = 7.1, 150 mM NaCl and 2 nM [^3H]flunitrazepam in the absence or presence of either 5 µM diazepam (to determine unspecific binding) or various concentrations of receptor ligands (dissolved in DMSO, final DMSO-concentration 0.5%). Membranes were filtered through Whatman GF/B filters and washed twice with 4 mL of ice-cold 50 mM Tris/citrate buffer. Filters were transferred to scintillation vials and subjected to scintillation counting after the addition of 3 mL Rotiszint Eco plus liquid scintillation cocktail. Nonlinear regression analysis of the displacement curves used the equation: log(inhibitor) vs. response - variable slope with Top = 100% and Bottom = 0% Y = 100/(1 + 10^((logIC50-x)*Hillslope)).

T4 sequence (P62813 28-455): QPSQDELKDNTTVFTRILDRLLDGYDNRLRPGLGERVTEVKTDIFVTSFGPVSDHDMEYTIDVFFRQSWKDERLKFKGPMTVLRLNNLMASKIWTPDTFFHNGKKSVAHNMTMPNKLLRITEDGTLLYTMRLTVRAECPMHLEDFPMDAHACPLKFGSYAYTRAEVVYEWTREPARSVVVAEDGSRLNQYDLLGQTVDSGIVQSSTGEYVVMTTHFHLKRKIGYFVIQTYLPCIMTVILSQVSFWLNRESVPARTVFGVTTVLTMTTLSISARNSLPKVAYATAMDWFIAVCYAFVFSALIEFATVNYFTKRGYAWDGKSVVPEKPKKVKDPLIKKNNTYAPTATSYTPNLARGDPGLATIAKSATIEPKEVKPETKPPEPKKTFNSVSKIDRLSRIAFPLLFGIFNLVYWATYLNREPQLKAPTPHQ
T4 sequence (P63079 26-473): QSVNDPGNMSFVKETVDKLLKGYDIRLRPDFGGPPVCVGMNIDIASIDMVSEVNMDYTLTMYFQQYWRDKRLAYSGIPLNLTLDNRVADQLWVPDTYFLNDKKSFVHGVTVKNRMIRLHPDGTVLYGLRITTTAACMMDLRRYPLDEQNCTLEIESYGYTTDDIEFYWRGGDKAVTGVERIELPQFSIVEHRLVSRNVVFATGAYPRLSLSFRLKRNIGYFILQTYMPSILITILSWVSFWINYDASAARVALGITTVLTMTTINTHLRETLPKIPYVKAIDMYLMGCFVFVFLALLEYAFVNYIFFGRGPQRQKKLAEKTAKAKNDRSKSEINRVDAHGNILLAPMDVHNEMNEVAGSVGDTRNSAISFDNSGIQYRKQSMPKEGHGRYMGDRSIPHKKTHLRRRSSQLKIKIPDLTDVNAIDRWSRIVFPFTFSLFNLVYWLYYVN
T2 sequence (P62813 28-455): as the sequence (P62813 28-455) above
T2 sequence (P15431 26-474): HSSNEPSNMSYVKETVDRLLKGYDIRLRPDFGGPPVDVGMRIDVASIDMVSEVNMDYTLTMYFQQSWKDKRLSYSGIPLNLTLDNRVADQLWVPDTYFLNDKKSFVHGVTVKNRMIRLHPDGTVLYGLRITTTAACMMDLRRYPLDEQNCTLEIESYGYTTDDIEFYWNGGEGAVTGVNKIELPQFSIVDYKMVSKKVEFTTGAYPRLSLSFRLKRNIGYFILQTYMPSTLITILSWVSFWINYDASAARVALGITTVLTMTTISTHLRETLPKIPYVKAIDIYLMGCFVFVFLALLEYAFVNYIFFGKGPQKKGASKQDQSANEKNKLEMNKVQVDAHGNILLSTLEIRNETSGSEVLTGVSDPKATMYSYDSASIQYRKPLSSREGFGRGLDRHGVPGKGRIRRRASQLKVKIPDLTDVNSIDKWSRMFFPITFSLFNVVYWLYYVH
T3 sequence (P62813 28-455): as the sequence (P62813 28-455) above
T3 sequence (P63138 25-474 limits assumed): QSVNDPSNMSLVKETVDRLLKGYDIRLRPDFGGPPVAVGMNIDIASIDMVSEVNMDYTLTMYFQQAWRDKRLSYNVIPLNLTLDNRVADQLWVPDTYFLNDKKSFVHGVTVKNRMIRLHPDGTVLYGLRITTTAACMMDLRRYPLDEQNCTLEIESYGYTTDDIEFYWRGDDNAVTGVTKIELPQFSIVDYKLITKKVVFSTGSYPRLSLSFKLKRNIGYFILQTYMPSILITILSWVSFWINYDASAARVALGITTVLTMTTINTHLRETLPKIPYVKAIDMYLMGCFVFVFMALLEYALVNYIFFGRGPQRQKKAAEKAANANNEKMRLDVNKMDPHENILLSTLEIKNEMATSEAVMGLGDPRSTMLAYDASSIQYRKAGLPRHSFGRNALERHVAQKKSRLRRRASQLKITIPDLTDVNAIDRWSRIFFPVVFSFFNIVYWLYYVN
T5 sequence (P62813 28-455): as the sequence (P62813 28-455) above
T5 sequence (P15431 26-474 R66N): as the sequence (P15431 26-474) above, with R41N counted along it
T6 sequence (P62813 28-455): as the sequence (P62813 28-455) above
T6 sequence (P63079 26-473 N66R): as the sequence (P63079 26-473) above, with N41R counted along it
T1 sequence (P62813 28-455): as the sequence (P62813 28-455) above
T1 sequence (P15431 26-474): as the sequence (P15431 26-474) above
T1 sequence (P23574 36-465 partner limits assumed): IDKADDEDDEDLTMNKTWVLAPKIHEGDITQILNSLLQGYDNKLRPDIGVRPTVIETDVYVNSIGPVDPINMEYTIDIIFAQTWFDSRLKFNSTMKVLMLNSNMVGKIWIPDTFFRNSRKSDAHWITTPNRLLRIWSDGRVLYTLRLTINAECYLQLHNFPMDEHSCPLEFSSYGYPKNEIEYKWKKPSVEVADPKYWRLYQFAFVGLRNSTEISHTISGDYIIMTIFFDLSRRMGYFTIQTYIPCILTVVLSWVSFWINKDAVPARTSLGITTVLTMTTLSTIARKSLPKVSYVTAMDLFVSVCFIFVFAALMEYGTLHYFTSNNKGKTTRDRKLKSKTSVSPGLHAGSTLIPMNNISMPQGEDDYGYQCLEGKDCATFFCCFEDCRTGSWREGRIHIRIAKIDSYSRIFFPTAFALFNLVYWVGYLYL

## Cc1nnc2n1-c1ccc(Cl)cc1C(c1ccccc1Cl)=NC2 [triazolam, Triazolam]
[1]
  modulation: > 200%

## COc1ccc2[nH]cc3c(=O)n(-c4ccc(N)cc4)nc-3c2c1 [Compound 6, 2-(4-Aminophenyl)-8-methoxy-2,5-dihydro-3H-pyrazolo[4,3-c]quinolin-3-one]
α1β1 GABAA receptors; read-out: efficacy, % of control current (GABA EC3-5 = 100%), 30 nM
  activity at 0.03 µM: 100%
α1β1 GABAA receptors; read-out: efficacy, % of control current (GABA EC3-5 = 100%), 300 nM
  activity at 0.3 µM: 153 ± 9.5%
α1β1 GABAA receptors
  Hill slope (nH): 1.3±0.2
α1β1 GABAA receptors; co-applied with GABA EC3-5, read-out: EC50
  EC50: 0.65 µM
α1β2 GABAA receptors; 30 nM
  activity at 0.03 µM: 98 ± 3%
α1β2 GABAA receptors; 100 nM
  activity at 0.1 µM: 99.5 ± 5.5%
α1β2 GABAA receptors; 1 µM
  activity at 1 µM: 97.5 ± 9.5%
α1β2 GABAA receptors; 10 µM
  activity at 10 µM: 118 ± 9%
α1β2 GABAA receptors; 30 µM
  activity at 30 µM: 105 ± 8.3%
α1β3 GABAA receptors; 3 nM
  activity at 0.003 µM: 100 ± 1.9%
α1β3 GABAA receptors; 100 nM
  activity at 0.1 µM: 95 ± 5%
α1β3 GABAA receptors; 1 µM
  activity at 1 µM: 97.5 ± 0.5%
α1β1R41N GABAA receptors; 100nM
  current as % of control at 0.1 µM: 75 ± 1%
α1β1R41N GABAA receptors; 300nM
  current as % of control at 0.3 µM: 90 ± 10%
α1β1R41N GABAA receptors; 1μM
  current as % of control at 1 µM: 90 ± 15%
α1β1R41N GABAA receptors; 3µM
  current as % of control at 3 µM: 90 ± 20%
α1β1R41N GABAA receptors; 10μM
  current as % of control at 10 µM: 70 ± 10%
α1β1R41N GABAA receptors; 30μM
  current as % of control at 30 µM: 115 ± 1%
α1β3N41R GABAA receptors
  EC50: 1.87 µM

## CN1C(=O)CN=C(c2ccccc2F)c2cc([N+](=O)[O-])ccc21 [[^3H]flunitrazepam]
[2]
  Kd: 0.0048 ± 0.0003 µM

Reference: publication PMC5516028, “Molecular tools for GABAA receptors: High affinity ligands for β1-containing subtypes” (Scientific Reports, 2017)
